# According to PMC6934184, “Selective DNA-PKcs inhibition extends the therapeutic index of localized radiotherapy and chemotherapy” (The Journal of Clinical Investigation, 2019):
# Target: T1, STK24 (MST3) (Homo sapiens, UniProt Q9Y6E0)
# T1 construct: purchased Thermo Fisher Scientific (Life Technologies) SelectScreen
# Assay: SelectScreen Z'LYTE
# Assay type: biochemical
# In short: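 NU5455 was profiled across the SelectScreen Broad panel of kinase activity and binding assays. Z'LYTE reactions such as CSF1R ran at apparent Km ATP, while the Adapta CAMK1 assay used ATP listed as 10. Values are given as percent.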
# T1 sequence (Q9Y6E0 whole entry): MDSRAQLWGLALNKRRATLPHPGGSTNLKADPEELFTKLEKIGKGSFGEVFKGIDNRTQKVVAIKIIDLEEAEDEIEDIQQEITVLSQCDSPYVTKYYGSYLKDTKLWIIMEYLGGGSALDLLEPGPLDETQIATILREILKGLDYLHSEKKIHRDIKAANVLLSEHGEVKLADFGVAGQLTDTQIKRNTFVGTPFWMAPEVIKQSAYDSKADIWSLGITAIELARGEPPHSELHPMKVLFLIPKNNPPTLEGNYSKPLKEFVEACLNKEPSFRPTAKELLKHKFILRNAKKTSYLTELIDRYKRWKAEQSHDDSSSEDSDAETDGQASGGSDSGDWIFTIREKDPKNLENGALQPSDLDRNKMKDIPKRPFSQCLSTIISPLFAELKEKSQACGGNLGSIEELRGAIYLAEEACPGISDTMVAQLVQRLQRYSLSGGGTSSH
structure (smiles),measurement,value
CN(C(=O)CN1CCOCC1)c1ccc2sc3c(-c4cccc5c(=O)cc(N6CC7CCC(C6)O7)oc45)cccc3c2c1 [NU5455],inhibition at 1 µM,4.1%
